Source: publication PMC4608773, “Elisidepsin Interacts Directly with Glycosylceramides in the Plasma Membrane of Tumor Cells to Induce Necrotic Cell Death” (PLoS ONE, 2015)
Where two headings read alike, the source gives them in different places.

Experiments:
HCT-116 cells [1] = experiment: cells
Experimental: (§1) Cells were seeded in 96-well microtiter plates and maintained at 37°C and 5% CO2 in drug-free medium before treatment with vehicle alone or elisidepsin at the concentrations and times indicated in the text. For cell survival quantification, a colorimetric assay using SRB was used. Briefly, after treatment, cells were washed twice with phosphate buffered saline (PBS), fixed for 25 min in 1% glutaraldehyde solution, rinsed twice with PBS, stained in 0.4% SRB-1% acetic acid solution for 30 min, rinsed several times with 1% acetic acid solution, and air-dried. […] Results are expressed as percentage of control cell survival and represent the mean of at least three independent experiments. IC50, half-maximal inhibitory concentration, was used as a reference value.

[2] = tested on: HCT-116-Irv cells (elisidepsin-resistant subline); experiment: cells
Experimental: B16 and GM95 cells were maintained in DMEM with the same supplements and conditions.
as §1

B16 cells = experiment: Cell viability assay (SRB colorimetric); format: cell-based, mouse; settings: SRB assay; mean of three different experiments; read-out: B16 (IC50), cell growth half-maximal inhibitory concentration
Experimental: as §1

[3] = tested on: GM95 cells (UGCG-deficient B16 mutant); experiment: Cell viability assay (SRB colorimetric); format: cell-based, mouse; settings: negative values where GM95 is the more sensitive line
Experimental: as §1

GM95-UGCG cells = settings: read-out: mean IC50, GM95-UGCG cells; 72 h treatment (Fig 4C); SRB; at least three experiments
Experimental: as §1

HCT-116 cells [4] = experiment: Electrophysiological recordings of membrane conductance (whole-cell patch-clamp); format: cell-based, human; settings: elisidepsin 1 μM, ramps -100 mV to +120 mV, 500 ms, n = 4
Experimental: (§2) The effects of elisidepsin on membrane conductance were analyzed in HCT-116 and HCT-116-Irv cells as previously described. Experiments were performed in a small bath mounted on the stage of an inverted microscope (Nikon model TMS, Garden City, NY, USA) continuously perfused with the extracellular solution (Tyrode-glucose buffer). Ion currents were recorded at room temperature (20–22°C) using the whole-cell voltage-clamp configuration of the patch-clamp technique with an Axopatch 200B patch-clamp amplifier (Axon Instruments, Foster City, CA). Currents were filtered at 2 kHz (four-pole Bessel filter), sampled at 4 kHz. Data acquisition and command potentials were controlled by the CLAMPEX program of PCLAMP 9.2 software (Axon Instruments). Micropipettes were pulled from borosilicate glass capillary tubes (Narishige, GD-1, Tokyo, Japan) on a programmable horizontal puller (Sutter Instrument Co., San Rafael, CA, USA) and heat-polished with a microforge (Narishige). Pipette tip resistance averaged between 1 and 3 MΩ. The intracellular pipette solution contained (in mM): K-aspartate 80, KCl 50, phosphocreatine 3, KH2PO4 10, MgATP 3, HEPES-K 10, EGTA-K 5 and was adjusted to pH 7.25 with KOH. The external solution (Tyrode-glucose buffer) contained (in mM): NaCl 130, KCl 4, CaCl2 1.8, MgCl2 1, HEPES-Na 10, and glucose 10, and was adjusted to pH 7.40 with NaOH. Measurements were performed using the CLAMPFIT program of PCLAMP 9.2.

HCT-116-Irv cells = experiment: as above; format: cell-based, human; settings: elisidepsin 1 μM; ramps -100 mV to +120 mV, 500 ms
Experimental: as §2

[5] = Lipid overlay (dot-blot) assay with elisidepsin-biotin; format: binding, human; settings: elisidepsin-biotin:elisidepsin 1:1 and 1:15
Experimental: Lipid extracts from cells were obtained according to the Bligh and Dyer method with slight modifications. Briefly, a cell pellet was resuspended in 1 mL of distilled water, then 3.75 mL of chloroform:methanol (1:2) was added and the suspension was mixed by vortexing two minutes; next, 1.25 mL of chloroform was added and vortexed one minute; last, 1.25 mL of NaCl 1 M was added to the suspension and vortexed one minute. The suspension was centrifuged and the bottom organic phase was collected. This solution was dried under a nitrogen stream and stored at -20°C. This extract was dissolved in a small volume of chloroform:methanol (2:1) and lipids were separated in a HPTLC (high performance thin layer chromatography) silica gel plate (Merck-Millipore, Darmstad, Germany) using a mobile phase of chloroform:methanol (8:2). Lipids were visualized by staining the plate with thioflavine S (sprayed with 10 μg mL^-1 in acetone:water (4:1) and visualized under UV light). Glycosylated lipids were visualized by orcinol staining (sprayed with orcinol 0.5% in sulphuric acid 0.5 M and developed with heat). […]
Interaction of purified lipid fractions with elisidepsin was evaluated with an overlay assay. […] Elisidepsin-biotin interactions were detected by incubation with streptavidin-HRP and subsequent chemiluminescence.

With `C/C=C1\NC(=O)[C@H](Cc2ccccc2)NC(=O)[C@@H](C(C)C)NC(=O)[C@@H]([C@@H](C)CC)NC(=O)[C@H](NC(=O)[C@H](NC(=O)[C@H](CCCN)NC(=O)[C@H]2CCCN2C(=O)[C@H](NC(=O)[C@@H](NC(=O)[C@@H](NC(=O)[C@H](NC(=O)CC[C@@H](C)CC)C(C)C)[C@@H](C)O)C(C)C)C(C)C)[C@@H](C)CC)[C@@H](C)OC(=O)[C@H](C(C)C)NC1=O` [Elisidepsin] the “Sensitivity of HCT-116 cells to elisidepsin after pretreatment with UGCG inhibitor NB-DNJ” value (HCT-116 cells [1]; pretreated 48 h with NB-DNJ 200 μM, elisidepsin 30 min incubation, SRB, three experiments) was “increase in cell resistance”, the “Sensitivity of HCT-116 cells to elisidepsin after pretreatment with UGCG inhibitor PDMP” value (HCT-116 cells [1]; pretreated 72 h with PDMP 10 μM, elisidepsin 30 min incubation, SRB, three experiments) was “increase in cell resistance” and the IC50 (HCT-116 cells [1]; read-out: HCT-116 (IC50), cell growth half-maximal inhibitory concentration, SRB assay, 96-well, mean of three different experiments, exposure time not given) was 5.5 µM. For the same molecule, the IC50 (HCT-116 cells [1]; read-out: IC50 after 30 min exposure, HCT-116, 30 min exposure, SRB, mean±SD of at least three experiments) was 7.7 ± 4.1 µM, the “RR (resistance ratio): fold change between IC50 values from HCT-116-Irv and HCT-116” value ([2]; negative values where HCT-116-Irv is the more sensitive line) was 14.7 and the IC50 ([2]; read-out: HCT-116-Irv (IC50), cell growth half-maximal inhibitory concentration, SRB assay, 96-well, mean of three different experiments, exposure time not given) was 81 µM. The IC50 ([2]; read-out: IC50 after 30 min exposure, HCT-116-Irv, 30 min exposure, SRB, at least three experiments) was greater than 100 µM, the IC50 ([2]; read-out: IC50 after 72 h exposure, HCT-116-Irv, 72 h exposure, SRB, mean±SD of at least three experiments) was 81.5 ± 0.8 µM and the IC50 (B16 cells) was 7.9 µM. For the same molecule, the “RR: fold change between IC50 values from GM95 and B16” value [3] was 8.9, the IC50 (GM95-UGCG cells) was 9 µM and the “Time constant of the increase of membrane conductance” value (HCT-116 cells [4]; holding -80 mV, 20–22°C) was 107 ± 39 s. For the same molecule, the “Latency between application and the beginning of the effects on membrane conductance” value (HCT-116 cells [4]) was 460 ± 163 s, the “Effect on membrane conductance” value (HCT-116-Irv cells) was “virtually no effect” and the “Competition with elisidepsin-biotin for lipid fraction 4” value [5] was “could displace the biotinylated compound”.
